Measurements as given in patent US20260364175A1, “COMPOSITIONS FOR DRUG ADMINISTRATION” (Aegis Therapeutics, LLC, priority 2018, published 2026).
Several values for one entry are separate records, joined by “and”; a condition that tells them apart may be missing. Equal values may be shown once. Where a name gives a salt, the structure may show the parent alone.

What was measured:
blood glucose [1] = test: Intranasal insulin with/without […] TDM, anesthesia-induced hyperglycemia model; assay type: in vivo, mouse
Description: Intranasal administration of drugs or agents are possible in animal models e.g., mice and rats, although the nasal opening in is very small. […] Hyperglycemic animals were induced by an intraperitoneal (IP) injection containing xylazine-ketamine and blood glucose levels were monitored over a period of time.

blood glucose [2] = test: Ocular administration of insulin plus absorption enhancer, blood glucose in anesthetized rats; assay type: in vivo, rat (male Sprague-Dawley); conditions: for effect on blood glucose / ocular insulin absorption: 0.5% enhancer with 0.2% insulin eye drops; for effect on ocular insulin absorption (alkyl chain length comparison): alkylmaltosides with insulin eye drops; for Blood Glucose Concentration: 0.5% surfactant, insulin eye drops
[3] = cited from earlier work
[4] = Buccal fast-dispersing melatonin tablets in rabbits; conditions: for bioavailability: fast-disintegrating tablet, buccal
Experimental: Thereafter, the animals return to consciousness. At individual time point over a two hour period, 1 mL blood samples are collected from the central ear artery. […] All samples are stored at −70 °C until assaying for melatonin. Melatonin is measured using a commercial ELISA kit manufactured by GenWay Biotech Inc., San Diego, CA.

blood glucose [5] = test: Ocular administration of glucagon plus surfactant, blood glucose in rats; assay type: in vivo, rat; conditions: for Blood Glucose Concentration: 0.5% surfactant, glucagon eye drops after insulin; for effect on ocular glucagon absorption / blood D-glucose: eye drops, 0.5% surfactant plus glucagon (30 μg)
[6] = Octreotide pharmacokinetics after s.c. and oral delivery; conditions: for CL/F: po; for t1/2 1: first peak; for t1/2 2: second peak
Experimental: C prior to administration. […] Death is confirmed by cervical dislocation. […] Euthanasia is confirmed by cervical dislocation.
Pharmacokinetic analyses is carried out as follows.
Serum half-life (t1/2) is determined as follows.

[7] = insulin alone intranasal, minus TDM

insulin (Humalog)
lowest blood glucose level (blood glucose [1]; insulin + […] TDM intranasal, about 60 minute time point (about 30 min after insulin)): about 80 mg/dl | blood glucose level (blood glucose [1]; insulin + […] TDM intranasal, from about 75 minute time point): 80 to 100 mg/dL

insulin: insulin
return of blood glucose to normoglycemic levels (blood glucose [1]; [7]): never return to normoglycemic levels | time after insulin administration at which blood glucose starts to decline (blood glucose [1]; [7]): about 110 minutes | time mark at which blood glucose starts to decline (blood glucose [1]; [7]): ~120 min

CCCCCCOC1O[C@H](CO)[C@@H](O)[C@H](O)[C@H]1O (stereo partly drawn) [hexylglucoside, Hexylglucopyranoside]
effect on blood glucose / ocular insulin absorption (blood glucose [2]): ineffective

CCCCCCCCCOC1O[C@H](CO)[C@@H](O)[C@H](O)[C@H]1O (stereo partly drawn) [nonylglucoside, nonylglucopyranoside]
effect on blood glucose / ocular insulin absorption (blood glucose [2]): effectively stimulated insulin absorption | Blood Glucose (blood glucose [2]; insulin eye drops + 0.5%, reduced level, time not given): 150 mg/dL | Blood Glucose (blood glucose [2]; insulin eye drops + 0.5%, starting level): 297 mg/dL

CCCCCCCCO[C@@H]1O[C@H](CO)[C@@H](O[C@H]2O[C@H](CO)[C@@H](O)[C@H](O)[C@H]2O)[C@H](O)[C@H]1O [octyl maltoside, Octyl-β-D-maltoside]
effect on ocular insulin absorption (alkyl chain length comparison) (blood glucose [2]): less absorption enhancing activity

COc1ccc2[nH]cc(CCNC(C)=O)c2c1 [melatonin, 5-methoxy-N-acetyltryptamine]
mean elimination half-life ([3]; human, in vivo): roughly 45 minutes | absolute bioavailability ([3]; oral tablets, normal healthy volunteers (DeMuro et al.)): approximately 15% | oral bioavailability (estimated) ([3]; oral): 30-50% | bioavailability ([4]; with 1% to 2% alkylsaccharide): at least 75% | bioavailability ([4]; without alkylsaccharide): less than 50% | time to maximal concentration vs tablets without alkylsaccharide ([4]; with alkylsaccharide): approximately one half the time

CCCCCCCOC1O[C@H](CO)[C@@H](O)[C@H](O)[C@H]1O (stereo partly drawn) [heptylglucoside, heptylglucopyranoside]
effect on blood glucose / ocular insulin absorption (blood glucose [2]): ineffective

decylsucrose
Blood Glucose (blood glucose [2]; insulin eye drops + 0.5%, 120 min): 164 mg/dL | Blood Glucose (blood glucose [2]; insulin eye drops + 0.5%, time 0): 313 mg/dL

CCCCCCCCCCO[C@@H]1O[C@H](CO)[C@@H](O[C@H]2O[C@H](CO)[C@@H](O)[C@H](O)[C@H]2O)[C@H](O)[C@H]1O [Decyl Maltoside, decyl-β-D-maltoside]
Blood Glucose Concentration (blood glucose [5]; 130 min): 95 mg/dL | Blood Glucose Concentration (blood glucose [5]; 140 min): 99 mg/dL | Blood Glucose Concentration (blood glucose [5]; 180 min): 180 mg/dL | effect on ocular glucagon absorption / blood D-glucose (blood glucose [5]): increase significantly | effect on blood glucose / ocular insulin absorption (blood glucose [2]): maintained in the normoglycemic (80-120 mg/dl) or near-normoglycemic (120-160 mg/dl) range | Blood Glucose Concentration (blood glucose [2]; 80 min): 110 mg/dL | Blood Glucose Concentration (blood glucose [2]; 90 min): 120 mg/dL | Blood Glucose Concentration (blood glucose [2]; 100 min): 92 mg/dL | Blood Glucose Concentration (blood glucose [2]; 110 min): 81 mg/dL | Blood Glucose Concentration (blood glucose [2]; 120 min): 87 mg/dL | effect on ocular insulin absorption (alkyl chain length comparison) (blood glucose [2]): less absorption enhancing activity

dodecylsucrose [Dodecyl Sucrose]
Blood Glucose Concentration (blood glucose [5]; 130 min): 111 mg/dL | Blood Glucose Concentration (blood glucose [5]; 140 min): 143 mg/dL | Blood Glucose Concentration (blood glucose [5]; 150 min): 202 mg/dL | Blood Glucose Concentration (blood glucose [5]; 160 min): 247 mg/dL | Blood Glucose Concentration (blood glucose [5]; 170 min): 242 mg/dL | Blood Glucose Concentration (blood glucose [5]; 180 min): 234 mg/dL | Blood Glucose Concentration (blood glucose [5]; 190 min): 211 mg/dL | effect on ocular glucagon absorption / blood D-glucose (blood glucose [5]): increase significantly | Blood Glucose Concentration (blood glucose [2]; 40 min): 120 mg/dL | Blood Glucose Concentration (blood glucose [2]; 90 min): 86 mg/dL | Blood Glucose (blood glucose [2]; insulin eye drops + […], 120 min): 150 mg/dL | Blood Glucose (blood glucose [2]; insulin eye drops + […], time 0): 335 mg/dL

CCCCCCCCCCCCCO[C@@H]1O[C@H](CO)[C@@H](O[C@H]2O[C@H](CO)[C@@H](O)[C@H](O)[C@H]2O)[C@H](O)[C@H]1O [Tridecyl Maltoside, tridecyl-β-D-maltoside]
Blood Glucose Concentration (blood glucose [5]; 130 min): 82 mg/dL | effect on ocular glucagon absorption / blood D-glucose (blood glucose [5]): increase significantly | effect on blood glucose / ocular insulin absorption (blood glucose [2]): effective as absorption enhancers | Blood Glucose Concentration (blood glucose [2]; 40 min): 100 mg/dL | Blood Glucose Concentration (blood glucose [2]; 50 min): 87 mg/dL | Blood Glucose Concentration (blood glucose [2]; 80 min): 79 mg/dL | Blood Glucose Concentration (blood glucose [2]; 90 min): 85 mg/dL | Blood Glucose Concentration (blood glucose [2]; 100 min): 76 mg/dL | Blood Glucose Concentration (blood glucose [2]; 110 min): 74 mg/dL | Blood Glucose Concentration (blood glucose [2]; 120 min): 75 mg/dL | effect on ocular insulin absorption (blood glucose [2]; […] enhancer with insulin eye drops): sustained for the two hour time course of the experiment | effect on ocular insulin absorption (alkyl chain length comparison) (blood glucose [2]): more effective

regular porcine insulin
effect on blood D-glucose (blood glucose [2]; 0.2% in saline only, no enhancer, eye drops): remained elevated

C[C@@H](O)[C@@H]1NC(=O)[C@H](CCCCN)NC(=O)[C@@H](Cc2c[nH]c3ccccc23)NC(=O)[C@H](Cc2ccccc2)NC(=O)[C@@H](NC(=O)[C@H](N)Cc2ccccc2)CSSC[C@@H](C(=O)N[C@H](CO)[C@@H](C)O)NC1=O (relative stereo) [Octreotide, L-Cysteinamide, D-phenylalanyl-L-cysteinyl-L-phenylalanyl-D-tryptophyl-L-lysyl-L-threonyl-N-[2-hydroxy-1-(hydroxymethyl)propyl]-, cyclic (2→7)-disulfide; [R—(R*, R*)]acetate salt]
CL/F ([6]; mouse, in vivo, 1 mg/kg, oral 3.0% DDM): 54900 mL/min | CL/F ([6]; mouse, in vivo, 1 mg/kg, oral […] DDM): 28400 mL/min | half-life ([6]; mouse, in vivo, sc, 1 mg/kg): 41.2 min | t1/2 1 ([6]; oral 0.5% DDM, 1 mg/kg): 1.56 min | t1/2 2 ([6]; oral 0.5% DDM, 1 mg/kg): 52.50 min | AUC1 ([6]; oral 0.5% DDM, 1 mg/kg): 353.03 ng/mL/min | AUC2 ([6]; oral 0.5% DDM, 1 mg/kg): 901.04 ng/mL/min | t1/2 ([6]; oral 0.5% DDM, 1 mg/kg): 52.1 min | t1/2 ([6]; oral 0.5% DDM, 1 mg/kg, listed as octreotide): 53.1 min and 52.1 min | Cmax1 higher than Cmax2 ([6]; oral 0.5% Intravail): more than 2 fold | t1/2 1 ([6]; oral 3.0% DDM, 1 mg/kg): 1.33 min | t1/2 2 ([6]; oral 3.0% DDM, 1 mg/kg): 22.28 min | AUC1 ([6]; oral 3.0% DDM, 1 mg/kg): 21.50 ng/mL/min | AUC2 ([6]; oral 3.0% DDM, 1 mg/kg): 119.74 ng/mL/min | t1/2 ([6]; oral 3.0% DDM, 1 mg/kg): 23.6 min | t1/2 1 ([6]; oral […] DDM, 1 mg/kg): 0.96 min | AUC1 ([6]; oral […] DDM, 1 mg/kg): 97.80 ng/mL/min | AUC2 ([6]; oral […] DDM, 1 mg/kg): 132.90 ng/mL/min | t1/2 ([6]; oral […] DDM, 1 mg/kg): 25.8 min | t1/2 1 ([6]; s.c., 1 mg/kg): 2.04 min | t1/2 2 ([6]; s.c., 1 mg/kg): 39.15 min | AUC1 ([6]; s.c., 1 mg/kg): 38.39 ng/mL/min | AUC2 ([6]; s.c., 1 mg/kg): 251.73 ng/mL/min
